The values below come from patent US20240124501A1, “VANADIUM COMPOUNDS AND METHODS OF MAKING AND USING THEREOF” (priority 2022, published 2024).

For orientation: IC50 means the concentration that gives 50% inhibition.

Where “and” joins values, the source holds several entries; their conditions need not be identical. Equal values may be shown once. Read-outs that look alike come from different tables or passages of the source.

The subject of series [1] is HFF-1 (non-cancer human fibroblasts). The experiment in a line: Anti-proliferative activity, MTT assay, HFF-1 cells (Example 5). Background: Tetrazolium dyes change colour on reduction, which living cells bring about.
For series [2], the system named is Mycobacterium smegmatis (M. smeg). The experiment in a line: Growth inhibition of M. smeg (MIC/IC50 measurement). The settings on record: Mycolicibacterium smegmatis; M. smeg in 7H9 media, 24 h at 37° C., OD600; mean and SD of triplicate. The format is cell-based, Mycobacterium smegmatis mc^2 155. The protocol: Cell Culture and Growth Conditions. M. smeg was cultured in Middlebrook 7H9 medium (Ref. no. 271310; Difco) supplemented with 10% OAD (oleic acid, albumin, dextrose), 0.2% (v/v) glycerol, and […], and incubated with shaking for 24 h at 37° C. M. smeg was grown to a mid-logarithmic growth phase assessed via spectrophotometry and occurred at an optical density of 0.6 at 600 nm (OD600). In some experiments where M. smeg was treated with vanadium complexes, the cell culture supernatant was collected for ^51V NMR studies.
Minimum Inhibitory Concentration (MIC) Measurements. The inhibitory activity of the tested compounds was determined by measuring the lowest concentration that caused bacterial growth inhibition of 50% (IC50). M. smeg was grown to the mid-log phase of 0.6-0.8 at OD600. The final concentrations of the compounds used in these studies were obtained using serial dilutions to a final concentration range of 2 to 0.0039 mM and placed with M. smeg in 7H9 media into a 96-well plate. Plates were incubated for 24 h at 37° C. A Bio-Rad Benchmark Reader (Bio-Rad Laboratories: Hercules, CA, USA) was used to check the cell viability at OD600 at appropriate times. IC50 was determined to be the lowest concentration of complexes that inhibited M. smeg growth by 50%.
Statistical Analysis. For each treatment, data were represented as the mean and standard deviation of the IC50 from triplicate measurements. The IC50 was calculated using GraFit 5 data analysis software (version 5.0.13). • Chemistry
Preparation of Stock Solutions for Cell Culture Experiments. A 20 mM stock solution of each respective V-complex and its free ligands was prepared in DMSO and diluted with 7H9 media to a concentration of 2.0 mM for biological studies.

The subject of series [3] is T98g (human glioblastoma cells). Kind of series: Anti-proliferative activity, MTT assay, T98g cells (Example 5). The format is cell-based. The settings on record: read-out: IC50 (T98g), condition (B).
Series [4] has as its system T98 g cells (human glioblastoma multiforme). The experiment in a line: IC50 for 72 h treatments with fresh vanadium(V) compounds in T98 g cells (Example 7). The settings on record: 72 h treatment, each measurement reported, read-out: IC50 Value(s) (converted). The format is cell-based. How it is done:
(§1) Cell Culture and Growth Conditions. The well-established human glioblastoma multiforme cell line (T98 g) and human foreskin fibroblast (HFF-1) cell lines were purchased from American Type Culture Collection (ATCC, cat. no. CRL-1690 and SCRC-1041). Due to their limited life span in culture, HFF-1 cells were used at passages four to six. The cells were cultured in Advanced DMEM (Thermo Fisher Scientific cat. no. 12491-015), supplemented with L-glutamine (2.0 mM), antibiotic-antimycotic mixture (100 U mL^−1 penicillin, […] streptomycin, and […] amphotericin B), and fetal calf serum (FCS; heat-inactivated; 2% vol). For proliferation and cytotoxicity experiments, cells were seeded in 96-well plates at an initial density of 1.5×10^3 viable cells per well in 100 μL medium and left to attach overnight.
(§2) Freshly prepared stock solutions of V(V) complexes (10 mM in DMSO) were used for cell assays. […] Stock solutions of the treatment complexes were diluted with fully supplemented cell culture media to the required final concentrations, and the resultant media were either added to the cells within 1 min (fresh solutions) or left in cell culture incubator (310 K, 5% CO2) for 24 h prior to the cell treatments (aged solutions).
(§3) Each treatment included six replicate wells with cells and two background wells without cells that contained the same components. After the addition of treatment complexes, the plates were incubated for 72 h at 310 K and 5% CO2, then MTT reagent [1-(4,5-dimethylthiazol-2-yl)-3,5-diphenylformazan, Sigma M5655] was added (50 μL per well of freshly prepared 2.0 mg/mL solution in complete medium), and incubation was continued for 4-6 h. After that, the medium was removed, the blue formazan crystals were dissolved in 0.10 mL per well of DMSO, and the absorbance at 600 nm was measured using a Victor V3 plate reader. Typically, the treatment complexes were applied in a series of nine two-fold dilutions, starting from (100±20) M V, plus the vehicle control. Exact V concentrations in the assays were verified by ICP-MS measurements using samples of cell culture media and used in the calculations of the IC50 values. Fitting of the experimental data and calculations of the IC50 values were performed using Origin 6.1 software (Microcal Origin, 1999). For all the cell assays, consistent results were obtained in at least two independent experiments using different passages of cells and varying stock solutions of the treatment complexes.
In cases where multiple measurements were performed, the value determined for each measurement are reported.

The test system of series [5] is HFF-1 (human foreskin fibroblasts). The experiment in a line: Cytotoxicity, MTT assay, HFF-1 cells (Example 4). As to conditions: 72 h treatment; mixed with medium ~1 min before treatment; read-out: IC50 HFF-1 (fresh). The format is cell-based. How it is done:
as §1, with “µL” for “μL”
Freshly prepared stock solutions of V(V) complexes (10 mM in DMSO) were used for cell assays. […]
Each treatment included six replicate wells with cells and two background wells without cells that contained the same components. […] After that, the medium was removed, the blue formazan crystals were dissolved in 0.10 mL per well of DMSO, and the absorbance at 600 nm was measured using a Victor V3 plate reader. […]

For series [6], the system named is T98g cells (human glioblastoma multiforme). The experiment in a line: Antiproliferative activity, MTT assay, T98g cells (Example 4). As to conditions: 72 h treatment. The format is cell-based. How it is done: as §1, with “µL” for “μL”
as §2
as §3, with “(100±20) μM” for “(100±20) M”

A further series deals with T98g cells. Kind of series: V uptake by T98g cells (ICPMS). The settings on record: 30 min treatment with 100 μM of freshly diluted V complexes. The format is cell-based, human. How it is done: For V uptake experiments, T98 g cells were grown to ˜80% confluence in 12-well plates (three replicates per treatment). […] After that, V-containing media were removed, the cell layers were washed twice with phosphate buffered saline (PBS), detached with TrypLE solution (Thermo Fisher Scientific Cat. No. 12605028), pelleted, and washed again with PBS. Detachment and washing of cell pellets were used to remove V that was absorbed on the culture plates and on the cell surface. Cell numbers in each pellet were counted with a Countess automatic counter, typical numbers were (5±1)×10^5 cells/well, cell viability was >95% (Trypan blue staining). Cell pellets were digested with 0.20 mL of 65% HNO3 (trace pure, Merck 225711) for 3 d at 295 K, then diluted with Milli-Q water to 1.0 mL for ICPMS analysis. The analysis was performed with a Perkin-Elmer Nexion 350× spectrometer, using a standard V(IV) solution (Choice Analytical, Australia) and 193Ir peak as an internal standard. The measurements were performed in kinetic energy discrimination (KED) mode to eliminate the interference of [^35Cl^16O]^+ ions with the determination of ^51V^+. Cellular V concentrations were expressed in atoms V per cell. For all the cell assays, consistent results were obtained in at least two independent experiments, using different passages of cells and different stock solutions of the treatment compounds.

Where [7] appears, read: complexes mixed with cell culture medium ~1 min (295K) before treatment, read-out: IC50 T98g (fresh).
[8] abbreviates: pre-incubated with cell culture medium 24 h at 310K, 5% CO2, read-out: IC50 T98g (aged).

As for `CC(C)(C)c1cc(O)c(O)c(C(C)(C)C)c1` [H2dtb, 3,5-di-tert-butylcatechol], the IC50 in series [1] (Homo sapiens, HFF-1, read-out: IC50 (HFF-1), condition (B)) came to 24 ± 2 µM; in series [2] it was 241 ± 0.07 µM; in series [3], 15 ± 3 µM.

On to `Oc1ccccc1O` [H2cat, catechol], for which the half-maximal inhibitory concentration (IC50) in series [2] turned out to be 109 ± 0.05 µM.

With `CC(C)(C)c1cccc2c1[O][V]1(=[O])([O]c3cc(C45CC6CC(CC(C6)C4)C5)cc(C45CC6CC(CC(C6)C4)C5)c3[O]1)[N](CCO)CCN=C2`, the half-maximal inhibitory concentration (IC50) in series [4] was 5.3 ± 1.6 µM.

The compound `COc1cccc(O)c1O` [H23OMet, 3-methoxy catechol] had an IC50 in series [2] of 262 ± 0.15 µM.

As to `CCOc1cccc2c1[O][V]1(=[O])([O]c3cc(C45CC6CC(CC(C6)C4)C5)cc(C)c3[O]1)[N](CCO)CCN=C2`, the IC50 in series [4] was 14 ± 2 µM.

For the compound `CCOc1cccc2c1[O][V]1(=[O])([O]c3cc(C45CC6CC(CC(C6)C4)C5)cc(C45CC6CC(CC(C6)C4)C5)c3[O]1)[N](CCO)CCN=C2`, the IC50 in series [4] is 3.3 ± 0.4 µM.

With `CCOc1cccc2c1[O][V]1(=[O])([O]c3cc(C(C)(C)C)cc(C(C)(C)C)c3[O]1)[N](CCO)CCN=C2`, the IC50 in series [4] is 2.4 ± 0.3 µM.

Take `CC(C)(C)c1cc2c(c(C34CC5CC(CC(C5)C3)C4)c1)[O][V]1(=[O])([O]c3ccccc3C=NCC[N]1CCO)[O]2`: the half-inhibitory concentration (IC50) in series [4] was 9.3 ± 2.1 µM.

`CC(C)(C)c1cc2c(c(C34CC5CC(CC(C5)C3)C4)c1)[O][V]1(=[O])([O]c3ccc(Cl)cc3C=NCC[N]1CCO)[O]2`: the IC50 in series [4] is 3.4 ± 0.2 µM.

In series [2], `N#Cc1ccc(O)c(O)c1` [H2CN, 3,4-dihydroxybenzonitrile] gave a 50% inhibitory concentration (IC50) of 447 ± 0.04 µM.

For the compound `N.N.[Cl][Pt][Cl]` [cisplatin], the IC50 is 45 ± 4 µM in series [5], 33 ± 1 µM in series [6] (setting [7]) and above 50 µM in series [6] (setting [8]).

Regarding `[O]=[V]12([O]c3ccc(Cl)cc3C=NCC[N]1CCO)[O]c1cc(C34CC5CC(CC(C5)C3)C4)cc(C34CC5CC(CC(C5)C3)C4)c1[O]2`, in series [4], the IC50 is 11 ± 1 µM.

In turn, `O=c1ccc2cc(O)c(O)cc2o1` [H2Coum, 6,7-dihydroxycoumarin] gave an IC50 in series [2] of 506 ± 0.28 µM.

Take `CCOc1cccc2c1[O][V]1(=[O])([O]c3cc(C45CC6CC(CC(C6)C4)C5)cc(C(C)(C)C)c3[O]1)[N](CCO)CCN=C2`: the IC50 in series [4] is 2.1 ± 0.3 µM.

In turn, `O=[N+]([O-])c1ccc(O)c(O)c1` [H24NO2, 4-nitrocatechol] showed an IC50 in series [2] of 610 ± 0.05 µM.

Consider `[Na+].[Na+].[Na+].[O]=[V]([O-])([O-])[O-]` [Na3VO4], for which the half-maximal inhibitory concentration (IC50) in series [5] was 23 ± 3 µM; in series [6] (setting [7]) it was ~40 µM and 26 µM; in series [6] (setting [8]) it was 24 ± 4 µM. Besides, in series [1] (subtoxic concentrations, not seen in T98g), the “viability of HFF-1 cells compared with the vehicle control” value was 120-140%. Further, the “Uptake (T98g) of V” value in the series with T98g cells is reported as “(3.3 ± 0.8) × 10^7 atoms per cell”.

In turn, `Oc1c(O)c(Br)c(Br)c(Br)c1Br` [H2tbc, tetrabromocatechol] yielded a half-inhibitory concentration (IC50) in series [2] of 416 ± 0.19 µM.

Consider `CC(C)(C)c1cc2c(c(C(C)(C)C)c1)[O][V]1(=[O])([O]c3cc4ccc(=O)oc4cc3[O]1)[N](CCO)CCN=C2`, for which the IC50 in series [4] was 4.2 µM and 6.9 µM.
